Results from patent US20250188123A1, “PROTEASE INHIBITORS” (Regents of the University of Minnesota, priority 2022, published 2025).
“Also recorded” adds a separate entry of the source. Like-named read-outs stand apart in the source and are kept apart here.

Biological target: T1, recombinant human caspase-2 (cleavage of tau at D314) (Homo sapiens, UniProt P42575)
T1 construct: human caspase-2 p19 and p12 subunits were cloned as two separate open reading frames in the pCOLADuet-1 vector; made in house; host or cells: E. coli BL21(DE3)
T1 sequence (P42575 170-325 limits assumed): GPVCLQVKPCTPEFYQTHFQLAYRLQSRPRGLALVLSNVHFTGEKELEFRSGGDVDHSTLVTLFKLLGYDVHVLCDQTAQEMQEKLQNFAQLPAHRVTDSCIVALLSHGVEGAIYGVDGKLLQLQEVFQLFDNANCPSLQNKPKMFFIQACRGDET
T1 sequence (P42575 348-452 limits assumed): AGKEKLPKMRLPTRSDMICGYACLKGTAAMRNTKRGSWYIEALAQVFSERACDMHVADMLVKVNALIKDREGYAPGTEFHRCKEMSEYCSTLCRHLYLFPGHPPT
Experiment: In vitro caspase-2-catalyzed tau cleavage assay (Δtau314 production, IP/WB)
Assay type: biochemical
Details: for inhibition at 10 µM: read-out: inhibition of Casp2-catalyzed Δtau314 production (tau cleavage at D314)
Description: DNA sequences encoding human caspase-2 p19 and p12 subunits were cloned as two separate open reading frames in the pCOLADuet-1 vector (Millipore Sigma, Burlington, MA). The DNA sequence encoding human microtubule-associated protein tau 0N4R isoform was cloned in the pET28a vector (Millipore Sigma). Expression of recombinant human caspase-2 and tau was induced using 150 μM isopropyl-β-D-thiogalactopyranoside (IPTG) (Promega, Madison, WI) in the BL21(DE3) E. coli strain (Millipore Sigma) at room temperature for 16 hours while shaking at 250 rpm. Cells were then harvested via centrifugation at 6,000 g, 4° C. for 15 minutes, followed by lysis via sonication. Proteins were purified using HisPur Ni-NTA resin (Thermo Fisher Scientific, Waltham, MA) followed by HiTrap Chelating HP columns (GE Healthcare Life Sciences, Piscataway, NJ). Proteins were stored in 1× phosphate-buffered saline (pH 7.4) at 10 mg/mL (determined using a BCA assay (Thermo Fisher Scientific)), −80° C. until further use.
Purified recombinant Casp2 (final concentration during pre-incubation: 67 μM) was pre-incubated with various concentrations of inhibitory compounds at 4° C. for 72 h. Pre-treated enzyme was then incubated with purified recombinant tau at a molar ratio of 1:1 in 37° C. water bath, 1× reaction buffer (25 mM 4-(2-hydroxyethyl)-1-piperazineethanesulfonic acid (HEPES), 0.1% (w/v) 3-[(3-cholamidopropyl)dimethylammonio]-1-propanesulfonate (CHAPS), 10 mM dithiothreitol (DTT), pH 7.5) for 7 h. The final volume of each reaction was 100 μL. At the end of the 7-h incubation, 0.1% (v/v) protease inhibitor cocktail (Millipore Sigma) was added to stop the reactions.
Immediately after the reaction was stopped, the 100 μL enzyme-product mixture was diluted in 400 μL IP buffer (50 mM Tris-HCl (pH 7.4) and 150 mM NaCl, containing 0.1 mM phenylmethylsulfonyl fluoride, 0.2 mM 1,10-phenanthroline monohydrate, and protease inhibitor cocktail (Millipore Sigma)), and then incubated with 10 μg of Δtau314-specific monoclonal antibody 4F3 and 50 μL of Protein G Sepharose 4 Fast Flow resin (GE Healthcare) at 4° C. for 14-16 h. Subsequent resin wash and protein elution were performed as described previously (Liu P, et al., Scientific Reportsm 2020, 10, 3869). WB was performed according to a previously published protocol (Liu P, et al., Acta Neuropathologica Communications, 2019; 7, 111).

In the case of `CC(=O)N[C@H](C(=O)NC(CC(=O)O)C(=O)N[C@H](C(=O)N1CCc2cc(C)ccc2C1C(=O)N[C@H](C=O)CC(=O)O)C(C)C)C(C)C` (stereo in doubt) [Compound 30a, (R)-3-((S)-2-acetamido-3-methylbutanamido)-4-(((S)-1-((S)-1-(((S)-1-carboxy-3-oxopropan-2-yl)carbamoyl)-6-methyl-3,4-dihydroisoquinolin-2(1H)-yl)-3-methyl-1-oxobutan-2-yl)amino)-4-oxobutanoic acid, reference compound], the “inhibition of Casp2-catalyzed Δtau314 production (tau cleavage at D314)” value (compound at 10 μM, no-compound control = 100% Δtau314, 10 µM) is reported as “no inhibition; also recorded: did not inhibit”.

In the case of `CC(=O)N[C@H](C(=O)N[C@@H](CC(=O)O)C(=O)N[C@H](C(=O)N1CCc2cc(C)ccc2[C@H]1C(=O)N[C@H](C=O)CC(=O)O)C(C)C)C(C)C` [Compound 30b, (S)-3-((S)-2-acetamido-3-methylbutanamido)-4-(((S)-1-((S)-1-(((S)-1-carboxy-3-oxopropan-2-yl)carbamoyl)-6-methyl-3,4-dihydroisoquinolin-2(1H)-yl)-3-methyl-1-oxobutan-2-yl)amino)-4-oxobutanoic acid, reference compound], the inhibition at 10 µM (compound at 10 μM, no-compound control = 100% Δtau314) is reported as 68%.

`Cc1ccc2c(c1)CCN(C(=O)[C@@H](NC(=O)[C@H](CCCC(=O)O)NC(=O)C1Cc3ccccc3N1)C(C)C)[C@@H]2C(=O)N[C@H](C#N)CC(=O)O` (stereo partly drawn) [Compound 1, (8)-6-(((S)-1-((8)-1-(((S)-2-carboxy-1-cyanoethyl)carbamoyl)-6-methyl-3,4-dihydroisoquinolin-2(1H)-yl)-3-methyl-1-oxobutan-2-yl)amino)-5-((S)-indoline-2-carboxamido)-6-oxohexanoic acid] was tested, and the IC50 was 2020 ± 190 nM and the inhibition at 10 µM was 96%.
